From patent publication US12365706B2, “Macrocyclic peptides as potent inhibitors of K-RAS G12D mutant” (Merck Sharp & Dohme LLC, priority 2019, dated 2025)
Starred links: 1 amine or outer side, 2 acyl side, 3 side chain; linkers in the order of their positions; H or OH if unused. Positions of bridges follow the written chain, without caps; N, C: chain ends. Non-standard residues stand in square brackets, D forms with d. Residues, ends and D or L forms follow the SMILES beside them. Lys(N3) = [N-]=[N+]=NCCCC[C@H](N)C(=O)O; AEEA = NCCOCCOCC(=O)O; CH2 = C([*:1])[*:2]

Legend:
[1] = tested on: A427 cells (which contain the K-Ras(G12D) mutation); details: dose-dependent manner; cited from earlier work
[2] = tested on: ERK1/2; details: cited from earlier work
[3] = tested on: AsPC-1 (homozygous K-Ras(G12D)) cells; test: Cellular phospho-ERK assay in AsPC-1 cells; format: cell-based
Protocol: The cellular K-Ras inhibitory activity was evaluated by phosphorylation levels of ERK1/2 in AsPC-1 (homozygous K-Ras(G12D)) cells. AsPC-1 cells (ATCC® CRL-1682™) were cultured in T175 flask in growth medium (RPMI 1640 Medium, GlutaMAX™ Supplement, HEPES (Gibco 72400-047) supplemented with 10% fetal bovine serum (Hyclone SH30071.03) and 1× Penicillin/Streptomycin (Gibco 15140-122). The cells were harvested in seeding medium (RPMI 1640 Medium, no phenol red (Gibco 11835-030) supplemented with 10% fetal bovine serum (Hyclone SH30071.03), 25 mM HEPES (Gibco 15630-080) and 1× Penicillin/Streptomycin (Gibco 15140-122) after 5 min of 0.25% Trypsin-EDTA (Gibco 25200-056) digestion and were seeded in 384-well tissue culture treated plate (Greiner 781091) at a density of 15,000 cells/25 μL/well, and incubated at 37° C., 5% CO2 overnight. […] Phosphorylated ERK and total ERK levels were detected by Alpha SureFire Ultra Multiplex pERK kit (PerkinElmer MPSU-PTERK) using […] and 5 μL donor bead mix, both prepared following the manufacturer's protocol. […] Ratio of pERK vs total ERK in each well was used as the final readout. Dose response curves and EC50 were analyzed using a 4-parameter logistic equation in GraphPad Prism software (GraphPad, San Diego, CA).

[4] = molecular target: T1, K-Ras(G12D) (GMPPNP) (Homo sapiens, UniProt P01116, G12D); test: TR-FRET competitive binding assay, K-Ras(G12D) loaded with GMPPNP
T1 construct: His-SUMO-tagged human K-Ras resides 1-169 was expressed; His-SUMO (N, cleaved yes); made in house; host or cells: E. coli Rosetta 2 (DE3)

[5] = molecular target: K-Ras(G12D) (Homo sapiens, UniProt P01116, G12D); details: cited from earlier work
[6] = Cell homogenate stability assay; format: in vitro ADME
Protocol: Stability of peptides towards intracellular proteases can be evaluated using HeLa cell homogenate. Suspended HeLa cells at 1 million cells/mL are sonicated in bursts with a probe sonicator on ice until uniformly homogenized. The homogenate thus prepared is frozen and stored at −20° C. until use. The peptides are incubated with the homogenate at 1 million cells/mL and loss of the peptide with increasing time is quantified using LC-MS/MS. Briefly, the test peptide is incubated with the homogenate at 1 μM in final volume of 50 μL at 37° C. At 0, 10, 30, 60 and 120 min, the reactions are quenched with 150 μL solution of 80% (v/v) Acetonitrile in Methanol containing a known internal standard peptide. The quenched samples are centrifuged at 4000 rpm for 5 min at 10° C. and supernatants are injected for bioanalysis by liquid chromatography combined with tandem-mass spectrometer. […] In addition, pre-boiled homogenate (prepared by incubating homogenate for 30 min in boiling water) is also used as a negative control for each test peptide. The ke is first-order rate constant describing the disappearance of parent drug in the incubation and may be obtained from regressing the initial slope (ke=−(slope)) of the natural log of the analyte area/internal standard area (designated as C at an appointed time t) in C versus time (min) profile. The half-life (t½) is calculated as: […]

[7] = molecular target: T2, K-Ras^G12D (GDP) (Homo sapiens, UniProt P01116, G12D); test: TR-FRET competitive binding assay, K-Ras(G12D) loaded with GDP
T2 construct: His-SUMO-tagged human K-Ras resides 1-169 was expressed; His-SUMO (N, cleaved yes); made in house; host or cells: E. coli Rosetta 2 (DE3)

[8] = molecular target: T2, K-Ras^G12D (GDP); test: TR-FRET [K-Ras^G12D (GDP)] | EC50 (nM)

affinity for the GTP-loaded form of K-Ras (G12D) [4]	proteolytic degradation of the macrocycle in a cell homogenate stability study [6]	affinity for the GDP-loaded form of K-Ras (G12D) [7]	Structure (SMILES)	cell proliferation of A427 cells [1]	phosphorylation levels of ERK1/2 [2]	inhibition of ERK phosphorylation in an AsPC-1 cell line [3]	mutant selectivity in SOS1-mediated GDP-GTP exchange ([5]; G12D against G12C and wild-type K-Ras)	inhibition of SOS1-mediated GDP-GTP exchange [5]	EC50 [8]
weaker affinity	rapid proteolytic degradation	high affinity	CC[C@H](C)[C@@H]1NC(=O)[C@H](Cc2ccc(O)cc2)NC(=O)[C@H](CC(C)C)NC(=O)[C@@H]2CCCN2C(=O)[C@@H](NN[C@@H](CCCNC(=N)N)C(=O)N[C@@H](CCCNC(=N)N)C(=O)N[C@@H](CCCNC(=N)N)C(=O)N[C@@H](CCCNC(=N)N)C(=O)CC=O)CSSC[C@@H](C(=O)N[C@@H](CCCNC(=N)N)C(=O)N[C@@H](CCCNC(=N)N)C(=O)N[C@@H](CCCNC(=N)N)C(=O)N[C@@H](CCCNC(=N)N)C(N)=O)NC(=O)[C@H](C(C)C)NC(=O)[C@@H]2CCCN2C(=O)[C@H](CC(=O)O)NC(=O)[C@H](Cc2ccc(O)cc2)NC(=O)[C@H](CO)NC1=O [KRpep-2d]	suppressed cell proliferation	reduced phosphorylation levels of ERK1/2	absence of biological activity	G12D-mutant selectivity against G12C and wild-type K-Ras variants	potently inhibited	
			CC[C@H](C)[C@@H]1NC(=O)[C@H](Cc2ccc(O)cc2)NC(=O)[C@H](CC(C)C)NC(=O)[C@@H]2CCCN2C(=O)[C@H](NC(=O)COCCOCCNC(=O)[C@H](CCCCN=[N+]=[N-])NC(=O)CNC(=O)[C@H](CCCCN)NC(=O)[C@H](CCCCN)NC(=O)[C@H](Cc2c[nH]c3ccccc23)NC(=O)[C@H](CCCCN)NC(=O)[C@H](CCSC)NC(=O)[C@H](CCCNC(=N)N)NC(=O)[C@H](CCCNC(=N)N)NC(=O)[C@H](CC(N)=O)NC(=O)[C@H](CCC(N)=O)NC(=O)[C@H](Cc2ccccc2)NC(=O)[C@H](Cc2c[nH]c3ccccc23)NC(=O)[C@@H](NC(=O)[C@H](CCCCN)NC(=O)[C@@H](NC(=O)[C@H](CCC(N)=O)NC(=O)[C@H](CCCNC(=N)N)NC(C)=O)[C@@H](C)CC)[C@@H](C)CC)CSCSC[C@@H](C(=O)N[C@@H](CCCNC(=N)N)C(N)=O)NC(=O)[C@H](C(C)C)NC(=O)[C@@H]2CCCN2C(=O)[C@H](CC(=O)O)NC(=O)[C@H](Cc2ccc(O)cc2)NC(=O)[C@H](CO)NC1=O [SEQ ID NO: 16] (Ac-RQIKIWFQNRRMKWKKG[Lys(N3)][AEEA][dC]PLYISYDPVCR-NH2; linker 20-30 via CH2)						0.4 µM
